Measurements published in PubChem BioAssay (NCI).
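Growth conditions: 96-well plates. Treatment: test compound, 48 hours, 5 concentrations. Analysis: linear interpolation between bracketing concentrations; unreached endpoints set to highest concentration. Here, GI50 denotes the concentration required for 50% inhibition of growth. TGI: concentration producing complete growth inhibition.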

Columns and labels:
Assay in all cases: growth of human tumour cells (NCI), 48 h
SK-MEL-5 melanoma = test system: SK-MEL-5 melanoma
SNB-19 CNS = test system: SNB-19 CNS
K-562 leukemia = test system: K-562 leukemia
COLO 205 colon = test system: COLO 205 colon
UO-31 renal = test system: UO-31 renal
786-0 renal = test system: 786-0 renal
PC-3 prostate = test system: PC-3 prostate
SK-MEL-28 melanoma = test system: SK-MEL-28 melanoma
NCI-H23 lung = test system: NCI-H23 lung
HS 578T breast = test system: HS 578T breast
MDA-MB-231 breast = test system: MDA-MB-231 breast
M14 melanoma = test system: M14 melanoma
HCT-15 colon = test system: HCT-15 colon
NCI/ADR-RES ovarian = test system: NCI/ADR-RES ovarian
SF-539 CNS = test system: SF-539 CNS
KM12 colon = test system: KM12 colon
SF-268 CNS = test system: SF-268 CNS
MOLT-4 leukemia = test system: MOLT-4 leukemia
NCI-H226 lung = test system: NCI-H226 lung
UACC-62 melanoma = test system: UACC-62 melanoma
SR leukemia = test system: SR leukemia
MCF7 breast = test system: MCF7 breast
HOP-92 NSCLC = test system: HOP-92 NSCLC
SK-OV-3 ovarian = test system: SK-OV-3 ovarian
SW-620 colon = test system: SW-620 colon
T-47D breast = test system: T-47D breast
CCRF-CEM leukemia = test system: CCRF-CEM leukemia
SK-MEL-2 melanoma = test system: SK-MEL-2 melanoma
RXF 393 renal = test system: RXF 393 renal
U251 CNS = test system: U251 CNS
OVCAR-4 ovarian = test system: OVCAR-4 ovarian
DU-145 prostate = test system: DU-145 prostate
EKVX NSCLC = test system: EKVX NSCLC
UACC-257 melanoma = test system: UACC-257 melanoma
OVCAR-3 ovarian = test system: OVCAR-3 ovarian
HCT-116 colon = test system: HCT-116 colon
SN12C renal = test system: SN12C renal
HT29 colon = test system: HT29 colon
BT-549 breast = test system: BT-549 breast
A549 NSCLC = test system: A549 NSCLC
MDA-MB-435 = test system: MDA-MB-435
HL-60(TB) leukemia = test system: HL-60(TB) leukemia
SF-295 CNS = test system: SF-295 CNS
OVCAR-5 ovarian = test system: OVCAR-5 ovarian
CAKI-1 renal = test system: CAKI-1 renal
TK-10 renal = test system: TK-10 renal
HOP-62 NSCLC = test system: HOP-62 NSCLC
OVCAR-8 ovarian = test system: OVCAR-8 ovarian
SNB-75 CNS = test system: SNB-75 CNS
MALME-3M melanoma = test system: MALME-3M melanoma
LOX IMVI melanoma = test system: LOX IMVI melanoma
NCI-H522 lung = test system: NCI-H522 lung
ACHN renal = test system: ACHN renal
NCI-H460 lung = test system: NCI-H460 lung
RPMI-8226 leukemia = test system: RPMI-8226 leukemia
A498 renal = test system: A498 renal
IGROV1 ovarian = test system: IGROV1 ovarian

COc1ccc(N2C(=O)CS(=O)(=O)C2c2cccc(Oc3ccccc3)c2)cc1 (stereo unspecified)
TGI (SK-MEL-5 melanoma): 16.7 µM
TGI (SNB-19 CNS): > 100 µM
TGI (K-562 leukemia): 8.44 µM
TGI (COLO 205 colon): 11.4 µM
TGI (UO-31 renal): 71.3 µM
TGI (786-0 renal): 21.1 µM
TGI (PC-3 prostate): 51.9 µM
TGI (SK-MEL-28 melanoma): > 100 µM
TGI (NCI-H23 lung): > 100 µM
TGI (HS 578T breast): 28.5 µM
TGI (MDA-MB-231 breast): 7.6 µM
TGI (M14 melanoma): 22.6 µM
TGI (HCT-15 colon): 55.2 µM
TGI (NCI/ADR-RES ovarian): 15.4 µM
TGI (SF-539 CNS): 15.1 µM
TGI (KM12 colon): > 100 µM
TGI (SF-268 CNS): 38.4 µM
TGI (MOLT-4 leukemia): 21.9 µM
TGI (NCI-H226 lung): 52.6 µM
TGI (UACC-62 melanoma): 6.25 µM
TGI (SR leukemia): 8.48 µM
TGI (MCF7 breast): 4.72 µM
TGI (HOP-92 NSCLC): 72.1 µM
TGI (SK-OV-3 ovarian): > 100 µM
TGI (SW-620 colon): > 100 µM
TGI (T-47D breast): > 100 µM
TGI (CCRF-CEM leukemia): > 100 µM
TGI (SK-MEL-2 melanoma): 15.9 µM
TGI (RXF 393 renal): 19 µM
TGI (U251 CNS): 22.1 µM
TGI (OVCAR-4 ovarian): 79.5 µM
TGI (DU-145 prostate): > 100 µM
TGI (EKVX NSCLC): 47.8 µM
TGI (UACC-257 melanoma): 10.9 µM
TGI (OVCAR-3 ovarian): > 100 µM
TGI (HCT-116 colon): 5.88 µM
TGI (SN12C renal): 21.4 µM
TGI (HT29 colon): 50.9 µM
TGI (BT-549 breast): 54.1 µM
TGI (A549 NSCLC): > 100 µM
TGI (MDA-MB-435): 7.08 µM
TGI (HL-60(TB) leukemia): > 100 µM
TGI (SF-295 CNS): > 100 µM
TGI (OVCAR-5 ovarian): > 100 µM
TGI (CAKI-1 renal): 19.3 µM
TGI (TK-10 renal): 8.46 µM
TGI (HOP-62 NSCLC): > 100 µM
TGI (OVCAR-8 ovarian): 95.7 µM
TGI (SNB-75 CNS): 45.2 µM
TGI (MALME-3M melanoma): 54.6 µM
TGI (LOX IMVI melanoma): 29.5 µM
TGI (NCI-H522 lung): 13.8 µM
TGI (ACHN renal): 32.8 µM
TGI (NCI-H460 lung): 8.03 µM

Ic1ccc(-n2nnnc2-c2cnoc2-c2ccccc2)cc1
GI50 (RPMI-8226 leukemia): 22.4 µM
TGI (RPMI-8226 leukemia): > 64 µM
GI50 (SK-MEL-5 melanoma): 25.7 µM
TGI (SK-MEL-5 melanoma): > 72.7 µM
GI50 (SNB-19 CNS): > 63.1 µM
TGI (SNB-19 CNS): > 100 µM
GI50 (K-562 leukemia): 29.2 µM
TGI (K-562 leukemia): > 66.6 µM
GI50 (COLO 205 colon): > 59 µM
TGI (COLO 205 colon): > 100 µM
GI50 (UO-31 renal): > 50.5 µM
TGI (UO-31 renal): > 100 µM
GI50 (786-0 renal): 60.2 µM
TGI (786-0 renal): > 100 µM
GI50 (PC-3 prostate): > 34.4 µM
TGI (PC-3 prostate): > 71.4 µM
GI50 (SK-MEL-28 melanoma): > 62.2 µM
TGI (SK-MEL-28 melanoma): > 100 µM
GI50 (NCI-H23 lung): 35.4 µM
TGI (NCI-H23 lung): > 81 µM
GI50 (HS 578T breast): 42.7 µM
TGI (HS 578T breast): 98.4 µM
GI50 (MDA-MB-231 breast): > 51.9 µM
TGI (MDA-MB-231 breast): > 91.2 µM
GI50 (M14 melanoma): 37.6 µM
TGI (M14 melanoma): > 67.3 µM
GI50 (HCT-15 colon): 29.1 µM
TGI (HCT-15 colon): > 73.6 µM
GI50 (NCI/ADR-RES ovarian): 33 µM
TGI (NCI/ADR-RES ovarian): > 85.2 µM
TGI (SF-539 CNS): 3.98 µM
GI50 (KM12 colon): 47.1 µM
TGI (KM12 colon): > 89.6 µM
GI50 (SF-268 CNS): 54 µM
TGI (SF-268 CNS): > 100 µM
GI50 (MOLT-4 leukemia): 70 µM
TGI (MOLT-4 leukemia): > 100 µM
GI50 (NCI-H226 lung): 43 µM
TGI (NCI-H226 lung): > 78.9 µM
GI50 (UACC-62 melanoma): 29.3 µM
TGI (UACC-62 melanoma): > 83.6 µM
GI50 (SR leukemia): 37.7 µM
TGI (SR leukemia): > 100 µM
GI50 (MCF7 breast): 35.2 µM
TGI (MCF7 breast): > 100 µM
GI50 (HOP-92 NSCLC): 37.9 µM
TGI (HOP-92 NSCLC): > 100 µM
GI50 (SK-OV-3 ovarian): > 65.4 µM
TGI (SK-OV-3 ovarian): > 100 µM
GI50 (SW-620 colon): 39.6 µM
TGI (SW-620 colon): > 100 µM
GI50 (T-47D breast): 48.8 µM
TGI (T-47D breast): > 100 µM
GI50 (CCRF-CEM leukemia): 1.21 µM
TGI (CCRF-CEM leukemia): > 48.8 µM
GI50 (A498 renal): 22 µM
TGI (A498 renal): 74.4 µM
GI50 (SK-MEL-2 melanoma): > 94 µM
TGI (SK-MEL-2 melanoma): > 100 µM
GI50 (IGROV1 ovarian): > 73.6 µM
TGI (IGROV1 ovarian): > 100 µM
GI50 (RXF 393 renal): 43.1 µM
TGI (RXF 393 renal): > 100 µM
GI50 (U251 CNS): 44.8 µM
TGI (U251 CNS): > 100 µM
GI50 (OVCAR-4 ovarian): > 64.2 µM
TGI (OVCAR-4 ovarian): > 100 µM
GI50 (DU-145 prostate): 5.99 µM
TGI (DU-145 prostate): > 100 µM
GI50 (EKVX NSCLC): 7.49 µM
TGI (EKVX NSCLC): > 21.7 µM
GI50 (UACC-257 melanoma): > 58.5 µM
TGI (UACC-257 melanoma): > 100 µM
GI50 (OVCAR-3 ovarian): 46.4 µM
TGI (OVCAR-3 ovarian): > 100 µM
GI50 (HCT-116 colon): > 43 µM
TGI (HCT-116 colon): > 70 µM
GI50 (SN12C renal): 48.9 µM
TGI (SN12C renal): > 88.3 µM
GI50 (HT29 colon): > 100 µM
TGI (HT29 colon): > 100 µM
TGI (BT-549 breast): 9.49 µM
GI50 (A549 NSCLC): > 58.4 µM
TGI (A549 NSCLC): > 100 µM
GI50 (MDA-MB-435): 24.5 µM
TGI (MDA-MB-435): > 57.5 µM
GI50 (HL-60(TB) leukemia): 78.9 µM
TGI (HL-60(TB) leukemia): > 100 µM
GI50 (SF-295 CNS): 38.2 µM
TGI (SF-295 CNS): > 77.8 µM
GI50 (OVCAR-5 ovarian): > 100 µM
TGI (OVCAR-5 ovarian): > 100 µM
GI50 (CAKI-1 renal): 37.9 µM
TGI (CAKI-1 renal): > 100 µM
GI50 (TK-10 renal): 41.5 µM
TGI (TK-10 renal): > 82.3 µM
GI50 (HOP-62 NSCLC): 53.3 µM
TGI (HOP-62 NSCLC): > 100 µM
GI50 (OVCAR-8 ovarian): > 50.4 µM
TGI (OVCAR-8 ovarian): > 77 µM
GI50 (SNB-75 CNS): > 56.8 µM
TGI (SNB-75 CNS): > 100 µM
GI50 (MALME-3M melanoma): > 44.2 µM
TGI (MALME-3M melanoma): > 73.6 µM
GI50 (LOX IMVI melanoma): 49.3 µM
TGI (LOX IMVI melanoma): > 100 µM
GI50 (NCI-H522 lung): 46.3 µM
TGI (NCI-H522 lung): > 100 µM
GI50 (ACHN renal): > 61.1 µM
TGI (ACHN renal): > 100 µM
GI50 (NCI-H460 lung): 35 µM
TGI (NCI-H460 lung): > 100 µM
